pIC50: −log10 of the molar value.
Tests used:
[1] = Antagonist activity at CRTH2 receptor in human whole blood assessed as inhibition of PGD2-induced eosinophil shape change pretreated for 20 mins measured after 1 hr by flow cytometric analysis
[2] = Antagonist activity at CRTH2 receptor in human whole blood assessed as inhibition of PGD2-induced eosinophil chemotaxis

| SMILES | pIC50 [1] | pIC50 [2] |
| --- | --- | --- |
| CN1C(=O)N(Cc2csc(-c3ccccc3)n2)C(=O)C12C(=O)N(CC(=O)O)c1ccc(Cl)cc12 (stereo unspecified) | 5.40 |  |
| O=C(O)CN1C(=O)[C@@]2(CC(=O)N(Cc3cc(Cl)ccc3F)C2)c2cc(Cl)ccc21 [2-[(3S)-5-chloro-1'-[(5-chloro-2-fluorophenyl)methyl]-1,2-dihydrospiro[indole-3,3'-pyrrolidine]-2,5'-dione]acetic acid] | 5.74 | 7.21 |
| O=C(O)CN1C(=O)[C@@]2(NC(=O)N(Cc3cc(Cl)ccc3F)C2=O)c2cc(Cl)ccc21 | 7.16 | 8.13 |
| CN1C(=O)N(Cc2cc(Cl)ccc2F)C(=O)[C@]12C(=O)N(CC(=O)O)c1ccc(Cl)cc12 |  | 7.33 |
